Source: publication PMC12367838, “Relevance of kinetic interactions and co-formulants for plant protection product liver toxicity in vitro” (Archives of Toxicology, 2025)

Experiments:
[1] = test system: HepaRG cells; assay: AdipoRed triglyceride accumulation assay; assay type: cell-based, human; details: for Relative triglyceride accumulation: related to medium control
Protocol: Different elements of the liver steatosis AOP were evaluated in this study. Transcriptomics was employed as a tool to investigate the expression of liver steatosis-related genes that occur either as MIE (genes related to NR activation) or molecular and cellular KEs. In addition to gene expression, lipid accumulation in HepaRG cells was conducted to cover molecular KEs. Considering that upstream MIEs occur earlier than subsequent downstream KEs (Alarcan et al. [2021]), we applied different time points (24 h for transcriptomics and 72 h for lipid accumulation) to reflect the temporal relationships between biological events.
HepaRG cells were treated in 96-well plates for 72 h with eight different concentrations of the above-mentioned test compounds, with the highest concentration of each being the highest non-cytotoxic concentration. The synthetic LXR and FXR agonist, T0901317, was used as a positive control at a concentration of 10 µM. After the 72-h incubation, cells were washed with 200 µL phosphate-buffered saline (PBS), and then 200 µL PBS containing 5 µg/mL Hoechst 33,342 (Thermo Fisher Scientific; Waltham, Massachusetts, USA) was added to each well. Thereafter, 5 µL of the AdipoRed reagent was added to each well, and the plates were incubated at 37 °C for 10 min. Subsequently, the fluorescence of AdipoRed was measured at λexc = 485 nm/λemi = 572 nm, and Hoechst 33,342 was measured at λexc = 350 nm/λemi = 451 nm on the Infinite M200 PRO plate reader (Tecan; Männedorf, Switzerland). AdipoRed signals were normalized to Hoechst 33,342 signals to compensate for variations in cell number. Relative triglyceride levels were referred to untreated cells. Each concentration was measured in three technical replicates. Three independent biological replicates were performed (n = 3) and means as well as SD were calculated.
A linear mixed-effects ANOVA (α = 0.05) described by Pinheiro and Bates ([2000]) followed by a post-hoc Dunnett test for multiple comparisons of treatment groups versus the control was used for statistical analysis of data from cytotoxicity assay, AdipoRed assay, CYP450 inhibition assay as well as mixture effects. R studio (ver. 4.4.1) was used to determine the effective concentration at relative triglyceride induction fold of 1.5 for each test compound.

[2] = test system: HepaRG cells; assay: Total RNA sequencing, differential gene expression
[3] = high sub-cytotoxic concentration, 24 h, vs solvent control
[4] = low sub-cytotoxic concentration, 24 h, vs solvent control

C#CCOc1ccc(CCNC(=O)C(OCC#C)c2ccc(Cl)cc2)cc1OC (stereo not drawn) [MDP, mandipropamid]
Relative triglyceride accumulation ([1]; 5.00 mg/L, 72 h): 1.2 | Relative triglyceride accumulation ([1]; 6.00 mg/L, 72 h): 1.1 | Relative triglyceride accumulation ([1]; 8.00 mg/L, 72 h): 1.3 | Relative triglyceride accumulation ([1]; 10.0 mg/L, 72 h): 1.3 | Relative triglyceride accumulation ([1]; 12.0 mg/L, 72 h): 1.2 | Relative triglyceride accumulation ([1]; 15.0 mg/L, 72 h): 1.6 | Relative triglyceride accumulation ([1]; 19.0 mg/L, 72 h): 1.8 | EC1.5-fold (effective concentration at 1.5 relative triglyceride induction fold) ([1]; HepaRG cells, 72-h incubation): 14.4 mg/L | EC1.5-fold ([1]; HepaRG cells, 72 h): ≈ 35 µM | Fold change ACOX1 ([2]; gene ACOX1, MDP_HIGH): 0.9326 | log2FoldChange ACOX1 ([2]; gene ACOX1, MDP_HIGH): -0.1007 | Fold change AHR ([2]; gene AHR, MDP_HIGH): 1.696 | log2FoldChange AHR ([2]; gene AHR, MDP_HIGH): 0.7618 | Fold change CD36 ([2]; gene CD36, MDP_HIGH): 1.4443 | log2FoldChange CD36 ([2]; gene CD36, MDP_HIGH): 0.5304 | Fold change CYP1A1 ([2]; gene CYP1A1, MDP_HIGH): 10.9554 | log2FoldChange CYP1A1 ([2]; gene CYP1A1, MDP_HIGH): 3.454 | Fold change CYP1A2 ([2]; gene CYP1A2, MDP_HIGH): 0.4656 | log2FoldChange CYP1A2 ([2]; gene CYP1A2, MDP_HIGH): -1.103 | Fold change CYP2B6 ([2]; gene CYP2B6, MDP_HIGH): 1.009 | log2FoldChange CYP2B6 ([2]; gene CYP2B6, MDP_HIGH): 0.01275 | Fold change CYP2C9 ([2]; gene CYP2C9, MDP_HIGH): 0.1687 | log2FoldChange CYP2C9 ([2]; gene CYP2C9, MDP_HIGH): -2.568 | Fold change CYP2C19 ([2]; gene CYP2C19, MDP_HIGH): 0.1531 | log2FoldChange CYP2C19 ([2]; gene CYP2C19, MDP_HIGH): -2.707 | Fold change CYP2D6 ([2]; gene CYP2D6, MDP_HIGH): 0.9227 | log2FoldChange CYP2D6 ([2]; gene CYP2D6, MDP_HIGH): -0.116 | Fold change CYP3A4 ([2]; gene CYP3A4, MDP_HIGH): 0.7016 | log2FoldChange CYP3A4 ([2]; gene CYP3A4, MDP_HIGH): -0.5112 | Fold change FASN ([2]; gene FASN, MDP_HIGH): 1.131 | log2FoldChange FASN ([2]; gene FASN, MDP_HIGH): 0.178 | Fold change INSIG1 ([2]; gene INSIG1, MDP_HIGH): 1.034 | log2FoldChange INSIG1 ([2]; gene INSIG1, MDP_HIGH): 0.04872 | Fold change MLXIPL ([2]; gene MLXIPL, MDP_HIGH): 0.6622 | log2FoldChange MLXIPL ([2]; gene MLXIPL, MDP_HIGH): -0.5947 | Fold change NR1H2 ([2]; gene NR1H2, MDP_HIGH): 1.431 | log2FoldChange NR1H2 ([2]; gene NR1H2, MDP_HIGH): 0.5168 | Fold change NR1H4 ([2]; gene NR1H4, MDP_HIGH): 0.8415 | log2FoldChange NR1H4 ([2]; gene NR1H4, MDP_HIGH): -0.249 | Fold change NR1I2 ([2]; gene NR1I2, MDP_HIGH): 0.5918 | log2FoldChange NR1I2 ([2]; gene NR1I2, MDP_HIGH): -0.7568 | Fold change NR1I3 ([2]; gene NR1I3, MDP_HIGH): 0.06449 | log2FoldChange NR1I3 ([2]; gene NR1I3, MDP_HIGH): -3.955 | Fold change NR3C1 ([2]; gene NR3C1, MDP_HIGH): 1.123 | log2FoldChange NR3C1 ([2]; gene NR3C1, MDP_HIGH): 0.1669 | Fold change PPARA ([2]; gene PPARA, MDP_HIGH): 0.7275 | log2FoldChange PPARA ([2]; gene PPARA, MDP_HIGH): -0.4589 | Fold change PPARG ([2]; gene PPARG, MDP_HIGH): 4.604 | log2FoldChange PPARG ([2]; gene PPARG, MDP_HIGH): 2.203 | Fold change RARA ([2]; gene RARA, MDP_HIGH): 1.153 | log2FoldChange RARA ([2]; gene RARA, MDP_HIGH): 0.2052 | Fold change RARB ([2]; gene RARB, MDP_HIGH): 2.749 | log2FoldChange RARB ([2]; gene RARB, MDP_HIGH): 1.459 | Fold change RARG ([2]; gene RARG, MDP_HIGH): 1.386 | log2FoldChange RARG ([2]; gene RARG, MDP_HIGH): 0.4711 | Fold change SCD ([2]; gene SCD, MDP_HIGH): 0.8254 | log2FoldChange SCD ([2]; gene SCD, MDP_HIGH): -0.2768 | Fold change SREBF1 ([2]; gene SREBF1, MDP_HIGH): 0.451 | log2FoldChange SREBF1 ([2]; gene SREBF1, MDP_HIGH): -1.149 | CYP1A1 Fold change [2, 3]: ≈ 11 | NR1I3 Fold change [2, 3]: ≈ 0.06 | SREBF1 Fold change [2, 3]: ≈ 0.45 | ACOX1 Fold change [2, 4]: 1.035 | ACOX1 log2FoldChange [2, 4]: 0.04967 | AHR Fold change [2, 4]: 1.296 | AHR log2FoldChange [2, 4]: 0.3736 | CD36 Fold change [2, 4]: 1.929 | CD36 log2FoldChange [2, 4]: 0.9479 | CYP1A1 Fold change [2, 4]: 5.261 | CYP1A1 log2FoldChange [2, 4]: 2.395 | CYP1A2 Fold change [2, 4]: 0.6714 | CYP1A2 log2FoldChange [2, 4]: -0.5747 | CYP2B6 Fold change [2, 4]: 1.3371 | CYP2B6 log2FoldChange [2, 4]: 0.4191 | CYP2C9 Fold change [2, 4]: 0.329 | CYP2C9 log2FoldChange [2, 4]: -1.6038 | CYP2C19 Fold change [2, 4]: 0.4073 | CYP2C19 log2FoldChange [2, 4]: -1.2958 | CYP2D6 Fold change [2, 4]: 0.5576 | CYP2D6 log2FoldChange [2, 4]: -0.8427 | CYP3A4 log2FoldChange [2, 4]: 1.049 | FASN Fold change [2, 4]: 1.765 | FASN log2FoldChange [2, 4]: 0.8201 | INSIG1 Fold change [2, 4]: 1.785 | INSIG1 log2FoldChange [2, 4]: 0.8359 | MLXIPL Fold change [2, 4]: 0.9069 | MLXIPL log2FoldChange [2, 4]: -0.1409 | NR1H2 Fold change [2, 4]: 1.22 | NR1H2 log2FoldChange [2, 4]: 0.2868 | NR1H4 Fold change [2, 4]: 1.127 | NR1H4 log2FoldChange [2, 4]: 0.1725 | NR1I2 Fold change [2, 4]: 0.6165 | NR1I2 log2FoldChange [2, 4]: -0.6979 | NR1I3 Fold change [2, 4]: 0.09752 | NR1I3 log2FoldChange [2, 4]: -3.358 | NR3C1 Fold change [2, 4]: 1.06 | NR3C1 log2FoldChange [2, 4]: 0.08356 | PPARA Fold change [2, 4]: 0.907 | PPARA log2FoldChange [2, 4]: -0.1409 | PPARG Fold change [2, 4]: 2.875 | PPARG log2FoldChange [2, 4]: 1.5234 | RARA Fold change [2, 4]: 1.12 | RARA log2FoldChange [2, 4]: 0.164 | RARB Fold change [2, 4]: 3.072 | RARB log2FoldChange [2, 4]: 1.619 | RARG Fold change [2, 4]: 1.553 | RARG log2FoldChange [2, 4]: 0.6348 | SCD Fold change [2, 4]: 1.519 | SCD log2FoldChange [2, 4]: 0.6028 | SREBF1 Fold change [2, 4]: 0.7245 | SREBF1 log2FoldChange [2, 4]: -0.4649
